Measurements published in patent US10801065B2, “Methods of determining levels of exposure to radiation and uses thereof” (priority 2015, dated 2020).
Several values for one entry are separate records, joined by “and”; a condition that tells them apart may be missing. Identical values can stand only once.

What was measured:
Assay type in all cases: in vivo
[1] = test system: serum miRNAs miR-187-3p, miR-194-5p, miR-27a-3p, miR-30a-3p, miR-30c-5p; assay: Serum miRNA levels (qPCR) in mice given amifostine before total body irradiation; details: amifostine 250 mg/kg 24 hours prior to 0 Gy or 8 Gy-total body irradiation; sera 24 hours post-irradiation
Procedure: Peripheral blood was collected by retro-orbital bleeding after anesthesia. Up to 200 μL of blood was collected in DNAse/RNAse-free Eppendorf tubes and incubated at room temperature for 2 hours to allow clotting. Blood samples were then centrifuged in an Eppendorf 5415C centrifuge at 14000 RPM (15996 g) for 5 minutes at room temperature.
Total RNA was isolated from serum samples by using the miRCURY™ RNA Isolation Kit—Biofluids from 50 μL mouse serum as per the manufacturer's manual. […] Total RNA was eluted in 50 μL of RNAse-free H2O and stored at −80° C. Per the manufacturer's recommendations, input volumes for serum RNA were optimized for the cDNA synthesis reaction. cDNA was synthesized in 10 μL reactions using the Universal cDNA Synthesis Kit II and was diluted 50-fold in RNAse/DNAse-free H2O for use in quantitative PCR. The reagents for RNA extraction and cDNA synthesis were obtained from Exiqon (Vedbaek, Denmark).
Diluted cDNA was subjected to quantitative PCR analysis in Pick-N-Mix plates designed in a 96-well format. […] All reagents used for quantitative PCR were obtained from Exiqon (Vedbaek, Denmark). […]

[2] = test system: HuCD34+ humanized NSG mice, 4 Gy to 4.5 Gy total body irradiation; assay: Peripheral blood CBC at euthanasia in irradiated humanized mice given amifostine; details: TBI + Amifostine
Procedure: Blood collection for CBCs (100 μL) was performed by retro-orbital bleeding after anesthesia in EDTA-coated tubes (BD Biosciences, San Jose, Calif.). CBCs were recorded with a Hemavet 950 FS hematology analyzer (Drew Scientific, Dallas, Tex.).
HuCD34^+ “humanized” NSG mice were obtained from Jackson Labs, Bar Harbor, Me. These mice were generated by irradiating each mouse at 1.4 Gy to deplete their bone marrow and injecting each mouse with CD34^+ human HSC. Each mouse was tested for engraftment of human CD45^+ cells and murine CD45^+ cells at 12 weeks following transplantation. Prior to the experiments described herein, the presence of human CD45^+ cells was confirmed in the peripheral blood and bone marrow from untreated control mice using an anti-human CD45 FITC antibody.
The HuCD34^+ mice were treated with saline or amifostine (200 mg/kg of body weight 45 min-1 hr before radiation exposure) and were subsequently treated with 4 Gy to 4.5 Gy of total body irradiation, or were left untreated. Following these treatments, total bone cellularity and the levels of serum miRNAs were determined in the mice. Both CD45 staining of peripheral blood and engraftment analysis of bone marrow was performed when animals became moribund (between 9-14 days after total body radiation) and were sacrificed. The mice were irradiated at approximately 12 weeks after initial assessment of engraftment.

[3] = test system: HuCD34+ humanized NSG mice, 4 Gy to 4.5 Gy total body irradiation; assay: Bone marrow cellularity, human CD45 positive cells and CFU-Cs in irradiated humanized mice given amifostine; details: amifostine 200 mg/kg prior to 4.0 Gy or 4.5 Gy total body irradiation vs saline
Procedure: Bone marrow was harvested as per protocols described in Parmar et al. (Stem Cells 28:1186-1195, 2010). Briefly, animals were dissected to isolate the femurs and tibia from the mouse hind limb. The extracted bones were flushed with a 23-gauge needle using Hank's Balanced Salt Solution (HBSS, Life Technologies, Grand Island, N.Y.) supplemented with 2% fetal bovine serum (FBS) and 1% 10 mM HEPES (Life Technologies) to obtain bone marrow. The cells were then passed through an 18 gauge needle to obtain a single cell suspension. The bone marrow mononuclear cell count (BM-MNC) was determined by counting cells using 3% acetic acid with methylene blue solution (Stem Cell Technologies, Vancouver, British Columbia). For LKS (lineage, cKit, Sca-1) staining to visualize hematopoietic progenitor cells (HPCs) and hematopoietic stem cells (HSCs), whole bone marrow was stained with biotinylated anti-lineage cocktail (anti-Mac1, Gr-1, CD3e, B220, and Ter119), APC-conjugated anti-cKit (clone 2B8), and PECy7-conjugated anti Sca-1 (clone D7) antibodies. Following primary antibody staining, the cells were washed and incubated in PE-conjugated streptavidin secondary antibody to visualize lineage-positive cells. All primary and secondary antibodies were obtained from BD Biosciences (San Jose, Calif.). The samples were acquired using an LSR Fortessa instrument (Becton Dickinson, Franklin Lakes, N.J.) and data was analyzed using FlowJo software (TreeStar, Ashland, Oreg.).
To assess colony-forming ability, whole bone marrow isolated after flushing mouse femurs and tibiae was plated in 12-well plates at a density of 20,000 to 100,000 cells/well in methylcellulose medium (Methocult CF M3434, Stem Cell Technologies, Vancouver, British Columbia) containing recombinant murine IL-3, recombinant murine IL-6, and recombinant human erythropoietin. Cells from all samples were plated in triplicates and incubated at 37° C. in 5% CO2 for 7 days at which time hematopoietic colonies formed (colony-forming units in culture, CFU-Cs) were scored. […]

lethally-irradiated mice = assay: Kaplan-Meier survival of mice given amifostine before lethal total body irradiation
Procedure: C57BL/6J male mice (10 weeks old) were obtained from Jackson Labs (Bar Harbor, Me.) and the mice were used in the experiments at an age of 12-13 weeks. Animals were exposed to total body irradiation in an irradiation pie cage (Braintree Scientific, Braintree, Mass.) at various doses. Irradiation was performed using a 137Cs source (Gamma Cell® 40 Exactor, Best Theratronics, Ottawa, Ontario).
Saline or amifostine was given to mice intraperitoneally at 250 mg/kg body weight 24 hours prior to 0 Gy- or 8 Gy-total body irradiation in a first set of experiments. In a second set of experiments, mice were left untreated or mice were administered saline or 200 mg/kg amifostine 45 minutes prior to 0 Gy- or 8.5 Gy-total body irradiation. Serum was collected from all mice at 24 hours after irradiation or a time point in the non-irradiated mice that would correspond to 24 hours after irradiation in the treated mice.
Validation with real-time qPCR: One-way ANOVA was used to confirm global significance. Dunnett's post-hoc testing procedure was used to compare miRNA levels in the irradiated+saline-group against three other experimental groups. Univariate comparisons were performed using the Student's t-test or the Student's t-test for paired samples. Pearson's correlation coefficient was used for correlation testing. Survival analysis was performed using the log-rank (Mantel-Cox) test.

Q: Which results are given for `NCCCNCCSP(=O)(O)O` [amifostine]?
A: serum miRNA signature response to treatment [1]: responded to amifostine treatment only in the context of lethal radiation; HCT, CBC at euthanasia ([2]; group Avg): 10.93%; Hb, CBC at euthanasia ([2]; group Avg): 4.27 g/dL; PLT, CBC at euthanasia ([2]; group Avg): 104.33 K/uL; RBC, CBC at euthanasia ([2]; group Avg): 2.37 M/uL; WBC, CBC at euthanasia ([2]; group Avg): 1.22 K/uL; HCT, CBC at euthanasia ([2]; individual mice (# 8, 9, 13)): 17.00% and 11.00% and 4.80%; Hb, CBC at euthanasia ([2]; individual mice (# 8, 9, 13)): 4.80 g/dL (2×) and 3.20 g/dL; PLT, CBC at euthanasia ([2]; individual mice (# 8, 9, 13)): 213 K/uL and 44 K/uL and 56 K/uL; RBC, CBC at euthanasia ([2]; individual mice (# 8, 9, 13)): 2.55 M/uL and 1.65 M/uL and 2.92 M/uL; WBC, CBC at euthanasia ([2]; individual mice (# 8, 9, 13)): 1.28 K/uL and 1.19 K/uL and 1.20 K/uL; number of CFU-Cs [3]: increase; number of human CD45 positive cells in the bone marrow [3]: increase; total bone marrow cellularity [3]: increase; survival (lethally-irradiated mice; amifostine 200 mg/kg 45 minutes prior to 8.5 Gy-total body irradiation vs saline): prolonged survival; improvement in survival (lethally-irradiated mice; amifostine 250 mg/kg intraperitoneally 24 hours prior to 8 Gy-total body irradiation vs saline, n=8 per group, p=0.0452): 50%
